For assay [1], the target named is T1, D2R (Homo sapiens, UniProt P14416).
T1 construct: expressed in transfected cells; host or cells: HEK 293 T
In words: Antagonist effect on quinpirole-mediated inhibition of cAMP accumulation, HEK 293T cells expressing D2R. Type of assay: cell-based.
Procedure: 24 h post-transfection cells were seeded into white half-area 96-well plates at 2.0 × 10^4 cells per well and grown overnight. On the following day phenol red free medium was removed and replaced by PBS and cells were serum starved for 1 h before treatment. The assay was started by adding 10 μl coelenterazine-h (Promega, Mannheim, Germany) to each well to yield a final concentration of 5 μM. After 5 min incubation, compounds were added in PBS containing 50 μM forskolin (final concentration 10 μM). Reads of the plates started 15 min after agonist addition. BRET readings were collected using a CLARIOstar plate reader (BMG LabTech, Ortenberg, Germany). […] Curves were normalized to basal BRET ratio obtained from dPBS (0%) and the effect of 10 μM forskolin (100%).

The target in assay [2] is T2, hD4.4R (Homo sapiens, UniProt P21917).
T2 construct: expressed in transfected cells
T2 sequence (P21917 1-419): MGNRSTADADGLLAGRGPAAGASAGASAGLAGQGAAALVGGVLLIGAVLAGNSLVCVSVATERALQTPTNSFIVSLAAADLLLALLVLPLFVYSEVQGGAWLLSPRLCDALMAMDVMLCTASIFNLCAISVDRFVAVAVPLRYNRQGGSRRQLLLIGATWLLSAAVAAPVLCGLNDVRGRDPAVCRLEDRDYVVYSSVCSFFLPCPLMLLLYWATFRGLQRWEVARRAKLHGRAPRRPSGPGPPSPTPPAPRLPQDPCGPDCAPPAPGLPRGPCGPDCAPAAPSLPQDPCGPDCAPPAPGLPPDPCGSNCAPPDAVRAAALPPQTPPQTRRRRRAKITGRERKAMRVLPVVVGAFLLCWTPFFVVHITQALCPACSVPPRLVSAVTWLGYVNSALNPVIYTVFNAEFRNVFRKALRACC
In words: [3H]spiperone displacement, membranes from CHO cells stably expressing hD4.4R. Type of assay: binding.
Source text: In brief, competition binding experiments with the human D2LR, D2SR38, D3R39, and D4.4R40 receptors were perfomed using preparations of membranes from CHO cells stably expressing the corresponding receptor together with
the D2LR, D2SR, D3R, and D4.4R receptors, respectively. Homogenates from CHO cells stably expressing the human NTS1R (cDNA purchased from Missouri S&T cDNA Resource Center (UMR), Rolla, MO) at
1; PerkinElmer, Rodgau, Germany). Human NTS2R binding was achieved using homogenates from HEK
method41. Membranes were incubated at a final concentration of 4 µg per well with Bmax values of 350-
Freiburg, Germany). Unspecific binding was determined in the presence of haloperidol (10 µM for D2LR-
Protein concentration was established by the method of Lowry using bovine serum albumin as standard42.

Assay [3] deals with D2LR/NTS1R (Homo sapiens, UniProt P14416+P30989). In words: [3H]spiperone displacement, membranes from HEK 293 T cells coexpressing D2LR and NTS1R. Particulars: D2LR:NTS1R 1:2; mean ± s.e.m.
Procedure: Receptor-binding studies were carried out in analogy to a previously described method[53]. […] Protein concentration was established by the method of Lowry using bovine serum albumin as standard[54].
The resulting competition curves of the receptor-binding experiments were analysed by nonlinear regression using the algorithms in PRISM 6.0 (GraphPad Software, San Diego, CA). For each individual experiment, the data were fitted using a monophasic competition model to provide an IC50 value, which was then transformed into a Ki value according to the equation of Cheng and Prusoff[55].

Entries after “also recorded” stand apart in the source; their conditions may differ. Like-named read-outs stand apart in the source and are kept apart here.

These results are taken from paper PMC4963535, “Structure-guided development of heterodimer-selective GPCR ligands” (Nature Communications, 2016).

T1 sequence (P14416 1-414 isoform P14416-2): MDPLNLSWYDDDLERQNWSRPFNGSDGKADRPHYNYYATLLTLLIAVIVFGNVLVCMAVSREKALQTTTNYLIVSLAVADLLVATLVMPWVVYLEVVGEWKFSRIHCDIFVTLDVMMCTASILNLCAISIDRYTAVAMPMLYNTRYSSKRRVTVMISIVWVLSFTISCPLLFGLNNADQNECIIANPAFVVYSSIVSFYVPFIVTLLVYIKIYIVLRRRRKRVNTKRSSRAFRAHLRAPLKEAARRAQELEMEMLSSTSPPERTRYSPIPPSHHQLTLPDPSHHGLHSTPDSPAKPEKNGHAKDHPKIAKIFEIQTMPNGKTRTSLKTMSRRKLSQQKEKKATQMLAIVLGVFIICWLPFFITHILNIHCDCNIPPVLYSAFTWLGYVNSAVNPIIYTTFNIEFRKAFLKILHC
Sequence of D2LR/NTS1R (P14416 whole entry): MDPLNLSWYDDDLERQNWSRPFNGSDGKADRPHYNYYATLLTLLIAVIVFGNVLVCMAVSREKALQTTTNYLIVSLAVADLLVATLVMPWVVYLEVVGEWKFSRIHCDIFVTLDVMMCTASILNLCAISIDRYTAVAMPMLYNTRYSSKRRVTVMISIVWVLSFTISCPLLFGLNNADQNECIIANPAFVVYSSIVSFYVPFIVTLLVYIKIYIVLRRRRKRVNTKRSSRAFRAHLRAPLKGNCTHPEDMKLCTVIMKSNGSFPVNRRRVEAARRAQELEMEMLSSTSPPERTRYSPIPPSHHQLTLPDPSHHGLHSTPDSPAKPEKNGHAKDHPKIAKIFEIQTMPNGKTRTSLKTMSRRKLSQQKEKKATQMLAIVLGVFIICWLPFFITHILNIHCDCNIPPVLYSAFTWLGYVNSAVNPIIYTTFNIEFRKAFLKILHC
Sequence of D2LR/NTS1R (P30989 whole entry): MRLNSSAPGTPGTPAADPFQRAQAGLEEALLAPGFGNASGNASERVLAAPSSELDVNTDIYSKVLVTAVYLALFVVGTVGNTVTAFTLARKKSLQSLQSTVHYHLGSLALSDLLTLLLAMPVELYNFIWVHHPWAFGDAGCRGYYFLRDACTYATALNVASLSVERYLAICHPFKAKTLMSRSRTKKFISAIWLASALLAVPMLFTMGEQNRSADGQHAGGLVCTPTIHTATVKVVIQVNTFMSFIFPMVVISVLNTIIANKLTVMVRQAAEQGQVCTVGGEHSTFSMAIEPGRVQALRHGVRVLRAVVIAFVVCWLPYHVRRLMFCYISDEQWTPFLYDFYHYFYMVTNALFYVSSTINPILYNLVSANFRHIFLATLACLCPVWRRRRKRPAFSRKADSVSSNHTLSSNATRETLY

In the case of `CCc1cc(Cl)c(OC)c(C(=O)NC[C@@H]2CCCN2CC)c1O` [eticlopride, reference compound], in assay [1], the IC50 worked out at 0.0031 µM, the “antagonist behaviour at D2R (in words)” value is “inverse agonists; also recorded: inverse agonist effect” and the “decrease of the basal response (inverse agonist effect on basal cAMP level)” value is recorded as 22%.
In turn, `CC[C@H](C)[C@H](NC(=O)[C@H](Cc1ccc(O)cc1)NC(=O)[C@@H]1CCCN1C(=O)[C@H](CCCNC(=N)N)NC(=O)[C@H](CCCNC(=N)N)NC(=O)CCOCCOCCOCCOCCOCCOCCNC(=O)CCOCCOCCOCCOCCOCCOCCNC(=O)CCOCCOCCOCCOCCOCCOCCNC(=O)CCOCCOCCOCCOCCOCCOCCNC(=O)c1ccc(-c2ccc(-n3cc(CCCCN4CCN(c5ccccc5OC)CC4)nn3)cc2)cc1)C(=O)N[C@@H](CC(C)C)C(=O)O` [2d] came in with a Ki in assay [2] of 0.37 ± 0.05 µM. In addition, the “Fraction high (fraction representing the high-affinity binding site)” value (“Fraction high” below) in assay [3] worked out at 62 ± 3%.
In turn, `CC[C@H](C)[C@H](NC(=O)CN(CCc1ccc(O)cc1)C(=O)[C@@H]1CCCN1C(=O)[C@H](CCCNC(=N)N)NC(=O)[C@H](CCCNC(=N)N)NC(=O)CCOCCOCCOCCOCCOCCOCCNC(=O)CCOCCOCCOCCOCCOCCOCCNC(=O)c1ccc(-c2ccc(-n3cc(CCCCN4CCN(c5ccccc5OC)CC4)nn3)cc2)cc1)C(=O)N[C@@H](CC(C)C)C(=O)O` [2f] yielded a Ki in assay [2] of 0.26 ± 0.17 µM.
Consider `CCc1cc(Cl)c(OC)c(C(=O)NC[C@@H]2C[C@@H](OCCCCc3cn(-c4ccc(-c5ccc(C(=O)NCCOCCOCCOCCOCCOCCOCCC(=O)NCCOCCOCCOCCOCCOCCOCCC(=O)NCCOCCOCCOCCOCCOCCOCCC(=O)N[C@@H](CCCNC(=N)N)C(=O)N[C@@H](CCCNC(=N)N)C(=O)N6CCC[C@H]6C(=O)N[C@@H](Cc6ccc(O)cc6)C(=O)N[C@H](C(=O)N[C@@H](CC(C)C)C(=O)O)[C@@H](C)CC)cc5)cc4)nn3)CN2CC)c1O` [1c], for which the Ki in assay [2] is 0.42 ± 0.1 µM. Also, the “Fraction high” value in assay [3] worked out at 66 ± 5%.
`CCCN(CCCCc1cn(-c2ccc(-c3ccc(C(=O)NCCOCCOCCOCCOCCOCCOCCC(=O)N[C@@H](CCCNC(=N)N)C(=O)N[C@@H](CCCNC(=N)N)C(=O)N4CCC[C@H]4C(=O)N[C@@H](Cc4ccc(O)cc4)C(=O)N[C@H](C(=O)N[C@@H](CC(C)C)C(=O)O)[C@@H](C)CC)cc3)cc2)nn1)C1Cc2ccccc2C1` [3a] showed a Ki in assay [2] of 0.025 ± 0.01 µM.
For `CCc1cc(Cl)c(OC)c(C(=O)NC[C@@H]2C[C@@H](OCCCCc3cn(-c4ccc(-c5ccc(C(=O)NCCOCCOCCOCCOCCOCCOCCC(=O)NCCOCCOCCOCCOCCOCCOCCC(=O)N[C@@H](CCCNC(=N)N)C(=O)N[C@@H](CCCNC(=N)N)C(=O)N6CCC[C@H]6C(=O)N[C@@H](Cc6ccc(O)cc6)C(=O)N[C@H](C(=O)N[C@@H](CC(C)C)C(=O)O)[C@@H](C)CC)cc5)cc4)nn3)CN2CC)c1O` [1b], the Ki in assay [2] came out at 0.85 ± 0.75 µM. In assay [1] (10 nM quinpirole), the “antagonist behaviour at D2R (in words)” value is reported as “inverse agonists; also recorded: inverse agonist effect” and the “decrease of the basal response (inverse agonist effect on basal cAMP level)” value turned out to be 32%. Also, the “Fraction high” value in assay [3] stood at 31 ± 6%.
In assay [2], `CCCN(CCCCc1cn(-c2ccc(-c3ccc(C(=O)NCCOCCOCCOCCOCCOCCOCCC(=O)NCCOCCOCCOCCOCCOCCOCCC(=O)NCCOCCOCCOCCOCCOCCOCCC(=O)NCCOCCOCCOCCOCCOCCOCCC(=O)N[C@@H](CCCNC(=N)N)C(=O)N[C@@H](CCCNC(=N)N)C(=O)N4CCC[C@H]4C(=O)N[C@@H](Cc4ccc(O)cc4)C(=O)N[C@H](C(=O)N[C@@H](CC(C)C)C(=O)O)[C@@H](C)CC)cc3)cc2)nn1)C1Cc2ccccc2C1` [3d] returned a Ki of 0.18 ± 0.04 µM. For the same compound, in assay [3], the “Fraction high” value is listed as 53 ± 6%.
Turning to `CCc1cc(Cl)c(OC)c(C(=O)NC[C@@H]2C[C@@H](OCCCCc3cn(-c4ccc(-c5ccc(C(=O)NCCOCCOCCOCCOCCOCCOCCC(=O)N[C@@H](CCCNC(=N)N)C(=O)N[C@@H](CCCNC(=N)N)C(=O)N6CCC[C@H]6C(=O)N[C@@H](Cc6ccc(O)cc6)C(=O)N[C@H](C(=O)N[C@@H](CC(C)C)C(=O)O)[C@@H](C)CC)cc5)cc4)nn3)CN2CC)c1O` [1a], in assay [2], the Ki came out at 0.47 ± 0.42 µM.

For orientation: IC50 means the concentration that inhibits the measured activity by half. The term Ki denotes the dissociation constant of the complex between target and ligand, obtained from inhibition or displacement.
